Source: publication PMC7782785, “Outer-membrane-acting peptides and lipid II-targeting antibiotics cooperatively kill Gram-negative pathogens” (Communications Biology, 2021)
In brackets after ≈: the same amount, converted by molar mass.

Key:
A. baumannii LMG 01041 = assay: microbe, parasite or virus in culture; details: Acinetobacter baumannii, LMG01041
Procedure: (§1) MIC tests were performed in triplicate by liquid growth inhibition microdilution assays in sterile polypropylene microtiter plates according to the Clinical and Laboratory Standards Institute (CLSI) guideline for bacteria that grow aerobically. Briefly, the indicator strains were first streaked on the appropriate agar plate, and then single colonies were picked and incubated overnight in liquid broth. The final inoculum of bacteria was 5*10^5 CFU/mL prepared in CAMHB (cationic adjusted Mueller–Hinton broth, Sigma-Aldrich) or CAMHB plus 5% of lysed horse blood (TCS Biosciences, Buckingham, UK) in the case of S. pneumoniae. The antimicrobials were 2-fold serially diluted and 50 µL diluted bacterial suspension was added to each well to make the final volume 100 µL. The microtiter plates and the count plates were incubated at 37 °C for 16–20 h without shaking. Growth inhibition was assessed by measuring the OD600 using a microplate reader (Tecan Infinity F200). The lowest concentration of the antimicrobials that inhibits visible growth of the indicator strain is identified as the MIC value.
(§2) The condition for the tests and the analysis of the plates were performed as described above for the MIC tests.

E. aerogenes LMG 02094 = assay: microbe, parasite or virus in culture; details: Klebsiella aerogenes, LMG02094
Procedure: as §1, §2

E. coli LMG 15862 = assay: microbe, parasite or virus in culture; details: Escherichia coli, LMG15862
Procedure: as §1, §2

K. pneumoniae LMG 20218 = assay: microbe, parasite or virus in culture; details: Klebsiella pneumoniae, LMG20218
Procedure: as §1, §2

P. aeruginosa LMG 6395 = assay: microbe, parasite or virus in culture; details: Pseudomonas aeruginosa, LMG6395
Procedure: as §1, §2

A. baumannii ATCC 17978 = assay: microbe, parasite or virus in culture; assay type: cell-based; details: Acinetobacter baumannii, ATCC17978, read-out: MIC alone (MICA vancomycin, MICB D-11)
Procedure: as §1

[1] = tested on: A. baumannii ATCC BAA-1605; assay: microbe, parasite or virus in culture; assay type: cell-based; details: Acinetobacter baumannii, ATCCBAA1605, read-out: MIC alone (MICA vancomycin, MICB D-11)
Procedure: as §1

A. baumannii B2026 = assay: microbe, parasite or virus in culture; assay type: cell-based; details: Acinetobacter baumannii, B2026, read-out: MIC alone (MICA vancomycin, MICB D-11)
Procedure: as §1

E. coli ATCC 25922 = assay: microbe, parasite or virus in culture; assay type: cell-based; details: Escherichia coli, ATCC25922, read-out: MIC alone (MICA vancomycin, MICB D-11)
Procedure: as §1

E. coli ATCC BAA-2452 = assay: microbe, parasite or virus in culture; assay type: cell-based; details: Escherichia coli, ATCCBAA2452, read-out: MIC alone (MICA vancomycin, MICB D-11)
Procedure: as §1

E. coli B1927 = assay: microbe, parasite or virus in culture; assay type: cell-based; details: Escherichia coli, B1927, read-out: MIC alone (MICA vancomycin, MICB D-11)
Procedure: as §1

[2] = tested on: K. pneumoniae ATCC BAA-2524; assay: microbe, parasite or virus in culture; assay type: cell-based; details: Klebsiella pneumoniae, ATCCBAA2524, read-out: MIC alone (MICA vancomycin, MICB D-11)
Procedure: as §1

K. pneumoniae ATCC700603 = assay: microbe, parasite or virus in culture; assay type: cell-based; details: Klebsiella pneumoniae, ATCC700603, read-out: MIC alone (MICA vancomycin, MICB D-11)
Procedure: as §1

K. pneumoniae B1945 = assay: microbe, parasite or virus in culture; assay type: cell-based; details: Klebsiella pneumoniae, B1945, read-out: MIC alone (MICA vancomycin, MICB D-11)
Procedure: as §1

P. aeruginosa ATCC 27853 = assay: microbe, parasite or virus in culture; assay type: cell-based; details: Pseudomonas aeruginosa, ATCC27853, read-out: MIC alone (MICA vancomycin, MICB D-11)
Procedure: as §1

[3] = tested on: P. aeruginosa ATCC BAA-2108; assay: microbe, parasite or virus in culture; assay type: cell-based; details: Pseudomonas aeruginosa, ATCCBAA2108, read-out: MIC alone (MICA vancomycin, MICB D-11)
Procedure: as §1

P. aeruginosa B1954 = assay: microbe, parasite or virus in culture; assay type: cell-based; details: Pseudomonas aeruginosa, B1954, read-out: MIC alone (MICA vancomycin, MICB D-11)
Procedure: as §1

P. aeruginosa PA14 [4] = assay: microbe, parasite or virus in culture; assay type: cell-based; details: Pseudomonas aeruginosa, PA14, read-out: MIC alone (MICA vancomycin, MICB D-11)
Procedure: as §1

P. aeruginosa PA14 [5] = assay: Murine abscess model; assay type: in vivo, BALB/c mice
Procedure: An overnight P. aeruginosa PA14 culture was inoculated into fresh LB medium (100-fold dilution) and grown until an OD600 of 1.0. The culture was washed twice and resuspended in 0.9% NaCl to 10^8 CFU/mL. Four groups of five 6-week-old female BALB/c mice were used. […] After 24 h, the mice were sacrificed and the abscesses were excised to count the CFU. The bacterial loads were determined by serial dilution and plating. All animal experiments complied with the US and Chinese national guidelines for the use of animals in research. The protocol was approved by the Animal Care and Use Committee of the College of Life Sciences, Nankai University (permission number NK-04-2012). All procedures involving animals were performed after animals were anesthetized. The experimental results were analyzed with the GraphPad Prism software.

For CN[C@H](CC(C)C)C(=O)N[C@H]1C(=O)N[C@@H](CC(N)=O)C(=O)N[C@H]2C(=O)N[C@H]3C(=O)N[C@H](C(=O)N[C@H](C(=O)O)c4cc(O)cc(O)c4-c4cc3ccc4O)[C@H](O)c3ccc(c(Cl)c3)Oc3cc2cc(c3O[C@@H]2O[C@H](CO)[C@@H](O)[C@H](O)[C@H]2O[C@H]2C[C@](C)(N)[C@H](O)[C@H](C)O2)Oc2ccc(cc2Cl)[C@H]1O [Vancomycin], the MIC (A. baumannii LMG 01041) was 32 µM (≈ 46.4 µg/mL), the MIC (E. aerogenes LMG 02094) was 192 µM (≈ 278 µg/mL) and the MIC (E. coli LMG 15862) was 64 µM (≈ 92.8 µg/mL). For the same molecule, the MIC (K. pneumoniae LMG 20218) was 128 µM (≈ 186 µg/mL), the MIC (P. aeruginosa LMG 6395) was 128 µM (≈ 186 µg/mL) and the MIC (A. baumannii ATCC 17978) was 88.3 µM (≈ 128 µg/mL). For the same molecule, the MIC [1] was 44.2 µM (≈ 64 µg/mL), the MIC (A. baumannii B2026) was 22.1 µM (≈ 32 µg/mL) and the MIC (E. coli ATCC 25922) was over 88.3 µM. For the same molecule, the MIC (E. coli ATCC BAA-2452) was over 88.3 µM, the MIC (E. coli B1927) was 88.3 µM (≈ 128 µg/mL) and the MIC [2] was over 88.3 µM. For the same molecule, the MIC (K. pneumoniae ATCC700603) was over 88.3 µM, the MIC (K. pneumoniae B1945) was over 88.3 µM and the MIC (P. aeruginosa ATCC 27853) was over 88.3 µM. The MIC [3] was over 88.3 µM, the MIC (P. aeruginosa B1954) was 88.3 µM (≈ 128 µg/mL) and the MIC (P. aeruginosa PA14 [4]) was 88.3 µM (≈ 128 µg/mL). The “log10 CFU per abscess” value (P. aeruginosa PA14 [5]; mouse 1 of 5, P. aeruginosa PA14 s.c., treatment injected into infection area 1 h post-infection, 24 h, vancomycin 3 mg/kg, D-11 10 mg/kg, or both) was 8.341 log10 CFU per abscess, the “log10 CFU per abscess” value (P. aeruginosa PA14 [5]; mouse 2 of 5, same conditions) was 7.354 log10 CFU per abscess and the “log10 CFU per abscess” value (P. aeruginosa PA14 [5]; mouse 3 of 5, same conditions) was 7.321 log10 CFU per abscess. The “log10 CFU per abscess” value (P. aeruginosa PA14 [5]; mouse 4 of 5, same conditions) was 7.43 log10 CFU per abscess and the “log10 CFU per abscess” value (P. aeruginosa PA14 [5]; mouse 5 of 5, same conditions) was 7.5121 log10 CFU per abscess.
